The values below come from ChEMBL document CHEMBL6078713, “Synthesis and mechanistic studies of 4-aminoquinoline-Isatin molecular hybrids and Schiff's bases as promising antimicrobial agents” (Eur J Med Chem, 2025).

Values after ≈ are worked out from the molar mass of the structure shown.

The test system of the test is Enterococcus faecalis. As to the kind of experiment: Antibacterial activity against Enterococcus faecalis assessed as inhibition of bacterial growth. It counts as functional.

As for `O=C1Nc2cc(Cl)c(F)cc2/C1=N\NC(=O)c1cc(-c2cccc(Br)c2)n[nH]1`, the MIC turned out to be 8 µg/mL (≈ 17.3 µM).
